The text below walks through data of US8377948B2, “Antitumor agents and methods of their use” (The Ohio State University Research Foundation, priority 2004, dated 2013).

As a reminder, the IC50 is the midpoint of a concentration-inhibition curve. A lower IC50 goes with inhibition by little substance.

The first assay deals with PC-3 cells. The experiment in a line: MTT cell viability assay, PC-3 cells in 10% FBS medium. Type of assay: cell-based, human. The following applies: Homo sapiens, PC-3, 48 h, RPMI 1640 with 10% FBS, means ± S.D. (n = 6). On the procedure:
PC-3 (p53−/−) human androgen-nonresponsive prostate cancer cells were purchased from the American Type Tissue Collection (Manassas, Va.). Cells were cultured in RPMI 1640 medium (Gibco, Grand Island, N.Y.) supplemented with 10% fetal bovine serum (FBS; Gibco) at 37° C. in a humidified incubator containing 5% CO2.
Effect of the test agent on cell viability was assessed by the MTT {[3-(4,5-dimethylthiazol-2-yl)-2,5-diphenyl-2H-tetrazolium bromide]} assay in 96-well, flat-bottomed plates, in which 8,000 PC-3 or DU-145 cells/well were seeded. Cells were exposed to the test agent at the indicated concentrations, in six replicates, in 10% FBS-supplemented-RPMI-1640 medium at 37° C. in 5% CO2 for 48 hr. The medium was removed and replaced by 150 μL of 0.5 mg/mL of MTT in RPMI-1640 medium, and cells were incubated in the CO2 incubator at 37° C. for 2 h. Supernatants were removed from the wells, and the reduced MTT dye was solubilized with 200 μL/well DMSO. Absorbance was determined on a plate reader at 570 nm.
All compounds were evaluated for their ability to induce apoptotic death in human androgen-independent PC-3 prostate cancer in RPMI 1640 medium containing 10% fetal bovine serum (FBS). For representative compounds tested in DU-145 and LNCaP prostate cancer cells, the IC50 values for inhibiting cell proliferation were similar in these three cell lines irrespective of differences in androgen sensitivity, PTEN mutation, the functional status of p53 and Rb, and other biomarkers.
In general terms: Tetrazolium dyes change colour on reduction, which living cells bring about.
For `COc1cc2nc(N3CCN(C(=O)c4ccc(Cl)cc4)CC3)nc(N)c2cc1OC` [Compound 1, [4-(4-Amino-6,7-dimethoxy-quinazolin-2-yl)-piperazin-1-yl]-(4-chloro-phenyl)-methanone], half-maximal inhibition (IC50) was put at 60 ± 8 µM.
On the same count and under the same terms, next, `COc1cc2nc(N3CCN(C(=O)c4ccc(C#N)cc4)CC3)nc(N)c2cc1OC` [Compound 2, 4-[4-(4-Amino-6,7-dimethoxy-quinazolin-2-yl)-piperazine-1-carbonyl]-benzonitrile]: 68 ± 6 µM; `COc1cc2nc(N3CCN(C(=O)OCc4ccccc4)CC3)nc(N)c2cc1OC` [Compound 3, 4-(4-Amino-6,7-dimethoxy-quinazolin-2-yl)-piperazine-1-carboxylic acid benzyl ester]: 63 ± 6 µM; `COc1cc2nc(N3CCN(C(=O)c4cccc(C#N)c4)CC3)nc(N)c2cc1OC` [Compound 4, 3-[4-(4-Amino-6,7-dimethoxy-quinazolin-2-yl)-piperazine-1-carbonyl]-benzo-nitrile]: 82 ± 5 µM.
Turning to `COc1cc2nc(N3CCN(C(=O)c4ccc([N+](=O)[O-])cc4)CC3)nc(N)c2cc1OC` [Compound 5, [4-(4-Amino-6,7-dimethoxy-quinazolin-2-yl)-piperazin-1-yl]-(4-nitro-phenyl)-methanone], the IC50 came to 75 ± 11 µM.
Same read-out and setting: with `COc1ccc(C(=O)N2CCN(c3nc(N)c4cc(OC)c(OC)cc4n3)CC2)cc1OC` [Compound 6, [4-(4-Amino-6,7-dimethoxy-quinazolin-2-yl)-piperazin-1-yl]-(3,4-dimethoxy-phenyl)-methanone] the figure was 71 ± 8 µM; with `COc1cc2nc(N3CCN(C(=O)c4cccc5ccccc45)CC3)nc(N)c2cc1OC` [Compound 7, [4-(4-Amino-6,7-dimethoxy-quinazolin-2-yl)-piperazin-1-yl]-naphthalen-1-yl-methanone], 59 ± 4 µM; with `COc1cc2nc(N3CCN(C(=O)c4ccc(N)cc4)CC3)nc(N)c2cc1OC` [Compound 8, [4-(4-Amino-6,7-dimethoxy-quinazolin-2-yl)-piperazin-1-yl]-(4-amino-phenyl)-methanone], more than 100 µM.
Same read-out and setting: with `COc1cc2nc(N3CCN(C(=O)c4ccc(C(C)(C)C)cc4)CC3)nc(N)c2cc1OC` [Compound 9, [4-(4-Amino-6,7-dimethoxy-quinazolin-2-yl)-piperazin-1-yl]-(4-tert-butyl-phenyl)-methanone] the figure was 47 ± 6 µM; with `COc1cc2nc(N3CCN(C(=O)c4ccc(C(F)(F)F)cc4)CC3)nc(N)c2cc1OC` [Compound 10, [4-(4-Amino-6,7-dimethoxy-quinazolin-2-yl)-piperazin-1-yl]-(4-trifluoromethyl-phenyl)-methanone], more than 100 µM; with `COc1cc2nc(N3CCN(S(=O)(=O)c4ccc(Cl)cc4)CC3)nc(N)c2cc1OC` [Compound 11, 2-[4-(4-Chloro-benzonesulfonyl)-piperazin-1-yl]-6,7-dimethoxy-quinazolin-4-yl-amine], 23 ± 3 µM.
On the same count and under the same terms, next, `COc1cc2nc(N3CCN(S(=O)(=O)c4ccc(Br)cc4)CC3)nc(N)c2cc1OC` [Compound 12, 2-[4-(4-Bromo-benzenesulfonyl)-piperazin-1-yl]-6,7-dimethoxy-quinazolin-4-yl-amine]: 20 ± 2 µM; `COc1cc2nc(N3CCN(S(=O)(=O)c4ccc(I)cc4)CC3)nc(N)c2cc1OC` [Compound 13, 2-[4-(4-Iodo-benzenesulfonyl)-piperazin-1-yl]-6,7-dimethoxy-quinazolin-4-yl-amine]: 15 ± 2 µM.
Turning to `COc1cc2nc(N3CCN(S(=O)(=O)c4ccc(Cl)s4)CC3)nc(N)c2cc1OC` [Compound 14, 2-[4-(5-Chloro-thiophene-2-sulfonyl)-piperazin-1-yl]-6,7-dimethoxy-quinazolin-4-ylamine], the IC50 was 25 ± 3 µM.
On the same count and under the same terms, next, `COc1cc2nc(N3CCN(S(=O)(=O)c4ccccc4[N+](=O)[O-])CC3)nc(N)c2cc1OC` [Compound 15, 6,7-Dimethoxy-2-[4-(2-nitro-benzenesulfonyl)-piperazin-1-yl]-quinazolin-4-yl-amine]: 35 ± 4 µM; `COc1cc2nc(N3CCN(S(=O)(=O)c4cccc([N+](=O)[O-])c4)CC3)nc(N)c2cc1OC` [Compound 16, 6,7-Dimethoxy-2-[4-(3-nitro-benzenesulfonyl)-piperazin-1-yl]-quinazolin-4-yl-amine]: 32 ± 5 µM; `COc1cc2nc(N3CCN(S(=O)(=O)c4ccc([N+](=O)[O-])cc4)CC3)nc(N)c2cc1OC` [Compound 17, 6,7-Dimethoxy-2-[4-(4-nitro-benzenesulfonyl)-piperazin-1-yl]-quinazolin-4-yl-amine]: 36 ± 3 µM.
As to `COc1cc2nc(N3CCN(S(=O)(=O)c4ccc(C)cc4)CC3)nc(N)c2cc1OC` [Compound 18, 6,7-Dimethoxy-2-[4-(toluene-4-sulfonyl)-piperazin-1-yl]-quinazolin-4-ylamine], the 50% inhibitory concentration (IC50) is 30 ± 2 µM.
`COc1cc2nc(N3CCN(S(=O)(=O)c4ccc(C(F)(F)F)cc4)CC3)nc(N)c2cc1OC` [Compound 19, 6,7-Dimethoxy-2-[4-(4-trifluoromethyl-benzenesulfonyl)-piperazin-1-yl]-quinazolin-4-yl-amine]: the IC50 came to 27 ± 3 µM.
On the same count and under the same terms, next, `COc1ccc(S(=O)(=O)N2CCN(c3nc(N)c4cc(OC)c(OC)cc4n3)CC2)cc1` [Compound 20, 6,7-Dimethoxy-2-[4-(4-methoxy-benzenesulfonyl)-piperazin-1-yl]-quinazolin-4-yl-amine]: 39 ± 4 µM; `COc1cc2nc(N3CCN(S(=O)(=O)c4ccc(OC(F)(F)F)cc4)CC3)nc(N)c2cc1OC` [Compound 21, 6,7-Dimethoxy-2-[4-(4-trifluoromethoxy-benzenesulfonyl)-piperazin-1-yl]-quinazolin-4-yl-amine]: 25 ± 2 µM.
The same measure, in the same setting: next, `COc1cc2nc(N3CCN(S(=O)(=O)c4ccc(S(C)(=O)=O)cc4)CC3)nc(N)c2cc1OC` [Compound 22, 2-[4-(4-Methanesulfonyl-benzenesulfonyl)-piperazin-1-yl]-6,7-dimethoxy-quinazolin-4-ylamine]: 17 ± 3 µM.
Same read-out and setting: next, `COc1cc2nc(N3CCN(S(=O)(=O)c4ccc(C(C)(C)C)cc4)CC3)nc(N)c2cc1OC` [Compound 23, 2-[4-(4-tert-Butyl-benzenesulfonyl)-piperazin-1-yl]-6,7-dimethoxy-quinazolin-4-ylamine]: 4 to 5 µM; `COc1cc2nc(N3CCN(S(=O)(=O)c4cccc(C(=O)O)c4)CC3)nc(N)c2cc1OC` [Compound 24, 3-[4-(4-Amino-6,7-dimethoxy-quinazolin-2-yl)-piperazine-1-sulfonyl]-benzoic acid]: 53 ± 4 µM; `COc1cc2nc(N3CCN(S(=O)(=O)c4cc(Cl)ccc4Cl)CC3)nc(N)c2cc1OC` [Compound 26, 2-[4-(2,5-Dichloro-benzenesulfonyl)-piperazin-1-yl]-6,7-dimethoxy-quinazolin-4-ylamine]: 60 ± 7 µM.
Regarding `COc1cc2nc(N3CCN(S(=O)(=O)c4ccc(N)cc4N)CC3)nc(N)c2cc1OC` [Compound 27, 4-[4-(4-Amino-6,7-dimethoxy-quinazolin-2-yl)-piperazine-1-sulfonyl]-benzene-1,3-diamine], the IC50 was 67 ± 5 µM.
Consider `COc1cc2nc(N3CCN(S(=O)(=O)c4cc(C(=O)O)c(Cl)cc4F)CC3)nc(N)c2cc1OC` [Compound 28, 5-[4-(4-Amino-6,7-dimethoxy-quinazolin-2-yl)-piperazine-1-sulfonyl]-2-chloro-4-fluoro-benzoic acid], for which the IC50 is 56 ± 4 µM.
In turn, `COc1cc2nc(N3CCN(S(=O)(=O)c4cc(C(=O)O)c(Cl)cc4Cl)CC3)nc(N)c2cc1OC` [Compound 29, 5-[4-(4-Amino-6,7-dimethoxy-quinazolin-2-yl)-piperazine-1-sulfonyl]-2,4-dichloro-benzoic acid] had an IC50 of 52 ± 6 µM.
Take `COc1cc2nc(N3CCN(S(=O)(=O)c4cccc5ccccc45)CC3)nc(N)c2cc1OC` [Compound 30, 6,7-Dimethoxy-2-[4-(naphthalene-1-sulfonyl)-piperazin-1-yl]-quinazolin-4-yl-amine]: the IC50 worked out at 14 ± 2 µM.
Still for that read-out and setting: with `COc1cc2nc(N3CCN(S(=O)(=O)c4ccc5ccccc5c4)CC3)nc(N)c2cc1OC` [Compound 31, 6,7-Dimethoxy-2-[4-(naphthalene-2-sulfonyl)-piperazin-1-yl]-quinazolin-4-yl-amino] the figure was 15 ± 2 µM; with `COc1cc2nc(N3CCN(S(=O)(=O)c4cccc5c(N(C)C)cccc45)CC3)nc(N)c2cc1OC` [Compound 32, 2-[4-(5-Dimethylamino-naphthalene-1-sulfonyl)-piperazin-1-yl]-6,7-dimethoxy-quinazolin-4-ylamine], 29 ± 4 µM.

The assay is the same for the next values; noted with them: RPMI 1640 with 10% FBS, 48 h, means ± S.D. (n = 6).
`COc1cc2nc(N3CCN(S(=O)(=O)c4ccc(C(C)(C)C)cc4)CC3)nc(N)c2cc1OC` [Compound 23, 2-[4-(4-tert-Butyl-benzenesulfonyl)-piperazin-1-yl]-6,7-dimethoxy-quinazolin-4-ylamine] returned a half-inhibitory concentration (IC50) of 4.1 ± 0.7 µM.
On the same count and under the same terms, with `COc1cc2nc(N3CCN(S(=O)(=O)c4c(C(C)C)cc(C(C)C)cc4C(C)C)CC3)nc(N)c2cc1OC` [Compound 34, 6,7-Dimethoxy-2-[4-(2,4,6-triisopropyl-benzonesulfonyl)-piperazin-1-yl]-quinazolin-4-yl-amine] the figure was 24 ± 3 µM.
